{"source": "paper PMC3931646", "about": "“A Cyclic Nucleotide-Gated Channel Mutation Associated with Canine Daylight Blindness Provides Insight into a Role for the S2 Segment Tri-Asp motif in Channel Biogenesis” (PLoS ONE, 2014)", "key": {"cA3+ hB3": {"target": "T1, cA3+ hB3 (Canis lupus familiaris; Homo sapiens, UniProt A0A068LEV2+Q9NQW8)", "T1 construct": "gene CNGA3; inter-species heterotetramer: canine CNGA3 with C-terminal YFP co-expressed with untagged human CNGB3 (pcDNA3.1) in tSA201 cells; stoichiometry debated (2:2 or 3:1)", "T1 sequence (A0A068LEV2 1-708)": "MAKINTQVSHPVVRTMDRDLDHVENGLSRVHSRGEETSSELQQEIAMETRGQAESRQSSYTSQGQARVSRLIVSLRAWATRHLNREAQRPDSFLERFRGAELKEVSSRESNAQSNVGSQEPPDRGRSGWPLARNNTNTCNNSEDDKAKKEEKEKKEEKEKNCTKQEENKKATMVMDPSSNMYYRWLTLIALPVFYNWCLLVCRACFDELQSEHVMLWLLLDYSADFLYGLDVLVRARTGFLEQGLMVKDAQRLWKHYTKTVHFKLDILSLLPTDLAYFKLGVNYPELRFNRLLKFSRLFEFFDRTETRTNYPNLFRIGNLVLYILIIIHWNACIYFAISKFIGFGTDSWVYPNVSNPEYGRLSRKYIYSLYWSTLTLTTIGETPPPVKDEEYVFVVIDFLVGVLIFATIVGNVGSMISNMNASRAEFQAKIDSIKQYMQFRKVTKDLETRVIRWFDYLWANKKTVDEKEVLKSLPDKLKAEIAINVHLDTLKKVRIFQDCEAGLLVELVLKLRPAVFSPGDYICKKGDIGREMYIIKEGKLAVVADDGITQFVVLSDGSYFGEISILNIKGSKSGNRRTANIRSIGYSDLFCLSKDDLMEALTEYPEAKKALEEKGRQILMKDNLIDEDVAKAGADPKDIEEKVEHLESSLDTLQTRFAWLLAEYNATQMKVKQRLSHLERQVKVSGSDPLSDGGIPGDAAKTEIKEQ", "T1 sequence (Q9NQW8 1-809)": "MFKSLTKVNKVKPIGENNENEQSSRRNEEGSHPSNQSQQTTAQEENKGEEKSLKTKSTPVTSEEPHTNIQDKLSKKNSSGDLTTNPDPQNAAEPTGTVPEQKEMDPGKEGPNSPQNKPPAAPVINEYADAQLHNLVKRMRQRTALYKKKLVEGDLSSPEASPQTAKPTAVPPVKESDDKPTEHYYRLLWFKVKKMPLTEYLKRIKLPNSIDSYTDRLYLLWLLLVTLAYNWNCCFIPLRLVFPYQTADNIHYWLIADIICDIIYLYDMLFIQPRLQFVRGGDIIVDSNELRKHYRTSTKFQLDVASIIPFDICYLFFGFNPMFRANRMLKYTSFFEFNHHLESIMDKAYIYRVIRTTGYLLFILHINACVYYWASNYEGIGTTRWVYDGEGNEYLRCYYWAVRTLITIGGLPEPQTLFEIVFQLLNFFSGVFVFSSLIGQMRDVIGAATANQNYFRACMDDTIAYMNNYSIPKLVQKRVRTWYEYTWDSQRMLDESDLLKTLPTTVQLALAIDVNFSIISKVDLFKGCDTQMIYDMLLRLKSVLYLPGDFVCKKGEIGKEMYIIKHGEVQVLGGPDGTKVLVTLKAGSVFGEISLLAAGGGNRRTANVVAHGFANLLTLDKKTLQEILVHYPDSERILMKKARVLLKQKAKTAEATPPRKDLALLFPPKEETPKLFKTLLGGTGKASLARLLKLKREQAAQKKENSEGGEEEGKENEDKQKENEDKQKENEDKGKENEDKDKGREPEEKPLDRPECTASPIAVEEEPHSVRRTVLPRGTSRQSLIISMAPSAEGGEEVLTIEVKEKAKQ", "test": "inside-out patch electrophysiology, current block", "assay_type": "biochemical", "conditions": "25 µM; channel block; 25 µM L-cis-diltiazem with 100 µM cGMP, -60 mV, 120 mM NaCl, EDTA/EGTA, pH 7.4, room temperature", "excerpt": "inside-out patch electrophysiology, current block on cA3+ hB3"}, "cA3": {"target": "T2, cA3 (Canis lupus, UniProt A0A068LEV2)", "T2 construct": "gene CNGA3; full-length coding region cloned from canine retina, C-terminal YFP (pEYFP-N1, stop removed), tSA201 cells, homotetramer", "T2 sequence (A0A068LEV2 1-708)": "T1 sequence (A0A068LEV2 1-708)", "test": "inside-out patch electrophysiology, current block", "assay_type": "biochemical", "conditions": "25 µM; channel block; 25 µM L-cis-diltiazem with 100 µM cGMP, -60 mV, 120 mM NaCl, EDTA/EGTA, pH 7.4, room temperature", "excerpt": "inside-out patch electrophysiology, current block on cA3"}}}
{"smiles": "COc1ccc([C@H]2Sc3ccccc3N(CCN(C)C)C(=O)[C@H]2OC(C)=O)cc1", "note": "[L-cis-diltiazem]", "values": [{"measurement": "Idil/I", "setting": "cA3+ hB3", "value": "0.40±0.02"}, {"measurement": "Idil/I", "setting": "cA3", "value": "0.79±0.05"}]}
